In patent publication US5114934A, “Tricyclic pyridone derivatives” (Hoffman-La Roche, Inc., priority 1985, dated 1992):

Assays:
[1] = acute toxicity (LD50), single oral administration to mice; settings: mouse, in vivo
Experimental: (§1) In this animal experiment the compound under investigation is administered orally to mice and 30 minutes later there are administered intraperitoneally 120 mg/kg of pentetrazole, which causes emprosthotonus and tonic stretchings of the fore and/or hind limbs in unprotected animals 1-4 minutes after the injection. 10 experimental animals are used per dosage of test substance. After counting the protected experimental animals the ED50 is determined according to the Probit method. The ED50 is that dosage which protects 50% of the experimental animals from the spasmodic seizures caused by pentetrazole. The results which have been obtained with representative members of the class of compound defined by formula I in the experiment described previously are compiled in the following Table. Moreover, the Table contains data concerning the acute toxicity (LD50) of some of these compounds in mg/kg in the case of single oral administration to mice.

[2] = tested on: spasmodic seizures caused by pentetrazole; assay: antipentetrazole test (mice, oral); type: in vivo; settings: Mus musculus, 0.5 h, 30 minutes before 120 mg/kg pentetrazole i.p., dosage protecting 50% of animals, Probit method
Experimental: As mentioned earlier, the compounds of formula I have valuable pharmacological properties. In particular they display pronounced muscle relaxant, sedative-hypnotic, anticonvulsive and/or anxiolytic properties and have only a low toxicity.
as §1

| Compound | LD50 [1] [mg/kg] | ED50 [2] [mg/kg] |
| --- | --- | --- |
| CCN(CC)C(=O)c1cc(-c2ccccc2)c(=O)n2ncc3ccc(Cl)cc3c12 [Compound H, N,N-Diethyl-10-chloro-4-oxo-3-phenyl-4H-pyrido[2,1-a]phthalazine-1-carboxamide] | > 4000 | 0.66 |
| CN(C)C(=O)c1cc(-c2ccccc2)c(=O)n2ncc3ccc(Cl)cc3c12 [Compound G, N,N-Dimethyl-10-chloro-4-oxo-3-phenyl-4H-pyrido[2,1-a]phthalazine-1-carboxamide] | 5000 | 0.08 |
| COC1CN(C(=O)c2cc(-c3ccccc3)c(=O)n3ncc4ccc(Cl)cc4c23)C1 [Compound F, 1-[(10-Chloro-4-oxo-3-phenyl-4H-pyrido[2,1-a]-phthalazin-1-yl)carbonyl]-3-methoxyazetidine] | 5000 | 0.79 |
| COC1CN(C(=O)c2cc(-c3ccccc3)c(=O)n3ncc4ccccc4c23)C1 [Compound A, 3-methoxy-1-[(4-oxo-3-phenyl-4H-pyrido-[2,1-a]phthalazin-1-yl)carbonyl]azetidine] | 1500 | 1.1 |
| COC1CN(C(=O)c2cc(-c3ccccc3)c(=O)n3ncc4ccsc4c23)C1 [Compound M, 3-Methoxy-1-[(7-oxo-8-phenyl-7H-pyrido-[1,2-b]thieno[2,3-d]pyridazin-10-yl)carbonyl]-azetidine] | 5000 | 0.83 |
